“Also recorded” adds a separate entry of the source.
What was measured:
C57BL/6N mice [1] = assay: Spared nerve injury (SNI)-induced neuropathy, mechanical hypersensitivity; type: in vivo, mouse; conditions: 0.3 mg/kg i.p. on Day 14 after SNI; observed over 48 h
Description: (§1) Paw withdrawal latencies following mechanical stimulation were assessed using a dynamic plantar aesthesiometer (Ugo Basile, Gemonio, Italy), which compresses a stainless‐steel probe (0.5‐mm diameter) against the plantar surface of the hindpaw through a wire mesh bottom on which the mice are placed. The applied force was increased from 0 to 5 g over a period of 10 s (0.5 g/s ramp) and then remained constant at 5 g for an additional 10 s (total cutoff time, 20 s). An unequivocal paw withdrawal was evaluated as a response. The paw withdrawal latency was calculated as the average of three to four consecutive exposures with at least 20 s in between. The area under the curve was calculated using Prism 10 (Graph Pad) software.
The SNI model was performed as described previously (Bourquin et al. [2006]; Petersen et al. [2019]). Briefly, under isoflurane anaesthesia the tibial and common peroneal branches of the sciatic nerve were ligated and dissected distally. The sural nerve remained intact and the mice developed hypersensitivity in the lateral area of the hindpaw. Vioprolide A (0.3 mg/kg) or vehicle (1% DMSO in 0.9% NaCl) were i.p. administered in a volume of 100 μL 14 days after SNI. Paw withdrawal latencies following mechanical stimulation were assessed using a dynamic plantar aesthesiometer as described above.

C57BL/6N mice [2] = assay: Vertical pole test; type: in vivo, mouse; conditions: 3 mg/kg s.c. into the neck; naive mice; 20 and 44 h after administration
Description: (§2) For the accelerating rotarod test, mice were placed on a rotarod treadmill (Ugo Basile, Gemonio, Italy) at increasing speed (4–40 rpm over 300 s; cutoff time 300 s) and trained for several consecutive days. Only mice that reached 300 s without falling off during the training sessions were included in the experiment. In the vertical pole test, mice were placed with the head pointing upward on a vertical pole and the time needed to reach the ground was recorded (cutoff time 20 s). After baseline measurements, vioprolide A (3 mg/kg) or vehicle (1% DMSO in 0.9% NaCl) was s.c. administered into the neck and the accelerating rotarod test immediately followed by the vertical pole test was performed 20 and 44 h after drug administration. Three trials per mouse were used for evaluation (Balzulat et al. [2024]).

C57BL/6N mice [3] = assay: Von Frey filament test in naive mice; type: in vivo, mouse; conditions: 3 mg/kg s.c. into the neck, 22 and 46 h after administration
Description: Immediately after the vertical pole test, mice were placed on a wire‐mesh platform in Plexiglas cylinders and habituated for approximately 1 h. Von Frey filaments ranging from 0.04 to 4 g (Ugo Basile, Gemonio, Italy) were applied to the plantar surface of a hind paw for 1 s with a force causing the filament to bend. Starting with the lowest force, each filament was applied 10 times with a break of at least 2 min. The number of paw withdrawal reactions per 10 applications was used to calculate the withdrawal frequency (Beaulieu‐Laroche et al. [2020]). Measurements were performed at baseline and 22 and 46 h after vioprolide A or vehicle administration.

C57BL/6N mice [4] = assay: Zymosan-induced paw oedema (plethysmometer); type: in vivo, mouse; conditions: 0.3, 1 and 3 mg/kg s.c. 16 h prior to intraplantar zymosan; vs vehicle
Description: (§3) Paw inflammation was induced by injecting 20 μL of a zymosan A suspension (5 mg/mL in PBS without Ca^2+/Mg^2+, pH 7.4; Sigma‐Aldrich, St. Louis, USA) into the plantar side of a hindpaw (Petersen et al. [2019]). Vioprolide A (0.3, 1 or 3 mg/kg) or vehicle (1% DMSO in 0.9% NaCl) was s.c. administered into the neck in a volume of 100 μL 16 h prior to the intraplantar zymosan injection.
The volume of the hindpaw was measured using a plethysmometer (Ugo Basile, Gemonio, Italy) according to the manufacturer's instructions. The dipping solution contained 0.8–0.9 g/L NaCl in distilled water and 2–3 mL/L wetting compound (Ugo Basile, Gemonio, Italy) to reduce drop and meniscus build‐up. The paw volume was calculated as a mean of three measurements. The area under the curve was calculated using Prism 10 (Graph Pad) software.

[5] = Pharmacokinetic profile, plasma (LC-MS); type: in vivo; conditions: 0.3 mg/kg i.p.
Description: (§4) The pharmacokinetic profile of vioprolide A was determined by staff of Pharmacelsus (Saarbrücken, Germany) in male C57BL/6 mice as described (Balzulat et al. [2024]). A single dose of 0.3 mg/kg vioprolide A (in NaCl 0.9% + 1% DMSO) was i.p. administered, and two blood samples were obtained from each animal retrobulbarly under short isoflurane anaesthesia (at 0.25 and 0.5 h from 3 mice; at 1 and 2 h from 3 mice; and at 4 and 8 h from 3 mice). Immediately after the last blood sample was taken, the animal was euthanised by cervical dislocation, and the brain was collected. Plasma and brain concentrations of vioprolide A were determined by LC–MS analysis. The pharmacokinetic analysis was performed applying a non‐compartment model using the Kinetica 5.0 software (Thermo Scientific, Waltham, USA). All given parameters were obtained by trapezoid area calculation.

C57BL/6N mice [6] = assay: Zymosan-induced peritonitis, dynamic weight bearing; type: in vivo, mouse; conditions: 0.3 mg/kg s.c. into the neck 16 h prior to i.p. zymosan; DWB 5 h after zymosan; vs vehicle
Description: Acute peritonitis was induced by a single intraperitoneal (i.p.) injection (0.5 mL) of a zymosan A suspension (2 mg/mL in phosphate‐buffered saline (PBS) without Ca^2+/Mg^2+; Sigma‐Aldrich, Steinheim, Germany and Gibco, Darmstadt, Germany) as described (Stark et al. [2019]). Vioprolide A (0.3 mg/kg; kindly provided by the group of Prof. Rolf Müller, Helmholtz Institute for Pharmaceutical Research Saarland (HIPS), Helmholtz Center for Infection Research and Department of Pharmacy, Saarland University, Saarbrücken, Germany) or vehicle (1% DMSO in 0.9% NaCl) was subcutaneously (s.c.) injected into the neck (to prevent direct interaction with the i.p. applied zymosan) in a volume of 100 μL 16 h prior to the zymosan injection. An automated dynamic weight bearing (DWB) device (Bioseb, Boulogne, France) was used to assess the pain‐like behaviour during zymosan‐induced peritonitis. […] The recorded weight distribution was analysed using the DWB software as described (Laux‐Biehlmann et al. [2016]; Stark et al. [2019]). A zone was considered valid when the following parameters were detected: ≥ 0.8 g on one captor with a minimum of two adjacent captors recording ≥ 1.0 g. A time segment was considered valid if ≥ 3 stable pictures were detected (Laux‐Biehlmann et al. [2016]; Stark et al. [2019]). […]

C57BL/6N mice [7] = assay: CFA-induced paw inflammation, mechanical hypersensitivity; type: in vivo, mouse
Description: as §1
Paw inflammation was induced by injecting 20 μL of complete Freund's adjuvant (CFA; containing 1 mg/mL heat‐killed Mycobacterium tuberculosis in paraffin oil 85% and mannide monooleate 15%; Sigma‐Aldrich, St. Louis, USA) into the plantar side of a hindpaw (Petersen et al. [2019]). Vioprolide A (0.3, 1 or 3 mg/kg), diclofenac (50 mg/kg; Sigma‐Aldrich, St. Louis, USA), or vehicle (1% DMSO in 0.9% NaCl) was i.p. administered in a volume of 100 μL 24 h after the intraplantar CFA injection. Paw withdrawal latencies following mechanical stimulation were assessed using a dynamic plantar aesthesiometer as described above.

C57BL/6N mice [8] = assay: Accelerating rotarod test; type: in vivo, mouse; conditions: 3 mg/kg s.c. into the neck; naive mice; 20 and 44 h after administration
Description: as §2

[9] = Pharmacokinetic profile, brain levels (LC-MS); type: in vivo; conditions: 0.3 mg/kg i.p., mouse brain, over 8 h
Description: as §4

C57BL/6N mice [10] = assay: Zymosan-induced paw inflammation, mechanical hypersensitivity (dynamic plantar aesthesiometer); type: in vivo, mouse; conditions: 0.3, 1 and 3 mg/kg s.c. 16 h prior to intraplantar zymosan; 1-72 h post-zymosan; vs vehicle
Description: as §3, §1

C57BL/6N mice [11] = tested on: C57BL/6N mice; set-up: method as in Metzner et al. [2021]; conditions: positive control in a previous study; ref Metzner et al. [2021]; cited from earlier work
mice = conditions: cited from earlier work; for cytokines (interleukin-1β, interleukin-6, tumour necrosis factor) in peritoneal lavage after zymosan-induced peritonitis: Stark et al. [2019]
rodents = tested on: rodents; set-up: method as in earlier work; conditions: local treatment, ref Geranton et al. [2009], Jimenez-Diaz et al. [2008], Price et al. [2007]; cited from earlier work
[12] = male, C57BL/6, ip, mouse plasma

In the case of C/C=C1/NC(=O)[C@@H]2CSC(=N2)[C@@H]2C[C@@H](C)N2C(=O)[C@@H](CC(C)C)NC(=O)[C@H](C)NC(=O)[C@@H](O)COC(=O)[C@H](C(C)C)N(C)C(=O)[C@H]([C@@H](C)O)NC(=O)[C@@H]2CCCCN2C1=O [vioprolide A], the “SNI-induced mechanical hypersensitivity (paw withdrawal latency)” value (C57BL/6N mice [1]) is reported as “did not affect; also recorded: failed to affect the mechanical hypersensitivity”, the “motor function, vertical pole test” value (C57BL/6N mice [2]) is reported as “did not affect; also recorded: did not impair motor function” and the “mechanical sensitivity, paw withdrawals to von Frey filaments” value (C57BL/6N mice [3]) is reported as “did not alter mechanical sensitivity”. For the same compound, the “zymosan-induced paw edema (paw volume, time course and AUC)” value (C57BL/6N mice [4]) was “decreased in a dose‐dependent manner; also recorded: significantly reduced”, the “%AUCextra (extrapolated part of AUC0-inf)” value ([5]; mouse plasma) was 3.9% and the “t 1/2z (half-life of the terminal slope)” value ([5]; mouse plasma) was 1.0 h. For the same compound, the “t z (time of the last quantifiable sample)” value ([5]; mouse plasma) was 4.0 h, the concentration at 4 h ([5]; male, C57BL/6, intraperitoneal, mouse plasma, read-out: C z (last analytically quantifiable concentration)) was 0.1 ng/mL and the AUC(0-t) [5, 12] was 3.6 ng·h/mL. It also gave a Cmax [5, 12] of 7.8 ng/mL, a Tmax [5, 12] of 0.25 h and an AUC(0-inf) ([5]; male, C57BL/6, ip, mouse plasma, extrapolated to infinity) of 3.8 ng·h/mL. The CL/F ([5]; male, C57BL/6, ip, mouse plasma, read-out: CL/f (total body clearance after extravascular administration) (converted)) was 1330 mL/min/kg, the Vd/F ([5]; male, C57BL/6, ip, mouse plasma, read-out: V z/f (volume of distribution after extravascular administration)) was 116 L/kg and the half-life ([5]; male, C57BL/6, mouse, plasma, ip, 0.3 mg/kg, read-out: t 1/2z (half-life of the terminal slope) (converted)) was ~1 h. The “zymosan-induced weight shift towards the frontpaws (visceral nociceptive behaviour)” value (C57BL/6N mice [6]) was “significantly ameliorated; also recorded: significantly lower”, the “CFA-induced mechanical hypersensitivity (paw withdrawal latency)” value (C57BL/6N mice [7]; 0.3, 1 and 3 mg/kg i.p. 24 h after intraplantar CFA, observed over 24 h) was “failed to affect the mechanical hypersensitivity; also recorded: none of the applied doses of vioprolide A affected” and the “motor function, time on accelerating rotarod” value (C57BL/6N mice [8]) was “did not affect the time spent on the rotarod; also recorded: did not impair motor function”. The brain level [9] was “not detected in the brain” and the “zymosan-induced mechanical hypersensitivity (paw withdrawal latency, time course and AUC)” value (C57BL/6N mice [10]) was “significantly ameliorated; also recorded: significantly reduced”.
In the case of CC(C)C[C@H](CN)CC(=O)O [pregabalin], the “neuropathic pain behaviour in SNI model” value (C57BL/6N mice [11]) is listed as “attenuated the neuropathic pain behaviour”.
In the case of COC(=O)C[C@](O)(CCCC(C)(C)O)C(=O)O[C@@H]1C(OC)=C[C@]23CCCN2CCc2cc4c(cc2[C@H]13)OCO4 [homoharringtonine], the “cytokines (interleukin-1β, interleukin-6, tumour necrosis factor) in peritoneal lavage after zymosan-induced peritonitis” value (mice; ref Burgers et al. [2024]) is listed as “reduced the amount of cytokines” and the “pain behaviour during zymosan-induced peritonitis” value (mice; ref Burgers et al. [2024]) is listed as “ameliorated the pain behaviour”.
For O=C1N[C@@H]2C(=C[C@H](O)[C@@H](O)[C@H]2O)c2cc3c(c(O)c21)OCO3 [narciclasine], the “cytokines (interleukin-1β, interleukin-6, tumour necrosis factor) in peritoneal lavage after zymosan-induced peritonitis” value (mice; ref Burgers et al. [2024]) is given as “reduced the amount of cytokines” and the “visceral pain behaviour in murine peritonitis model” value (mice; ref Stark et al. [2019]) is given as “significantly inhibited visceral pain behaviour”.
In the case of CO[C@H]1C[C@@H]2CC[C@@H](C)[C@@](O)(O2)C(=O)C(=O)N2CCCC[C@H]2C(=O)O[C@H]([C@H](C)C[C@@H]2CC[C@@H](O)[C@H](OC)C2)CC(=O)[C@H](C)/C=C(\C)[C@@H](O)[C@@H](OC)C(=O)[C@H](C)C[C@H](C)/C=C/C=C/C=C/1C [rapamycin], the persistent pain-like behaviour (rodents) is given as “attenuated persistent pain‐like behaviour”.
For O=C(O)Cc1ccccc1Nc1c(Cl)cccc1Cl [diclofenac, reference compound], the “CFA-induced mechanical hypersensitivity (paw withdrawal latency)” value (C57BL/6N mice [7]; 50 mg/kg i.p. 24 h after intraplantar CFA, positive control, statistical significance not reached) was “visibly attenuated”.

Source: PMC12345401, “The mRNA Translation Inhibitor Vioprolide A Prevents Inflammatory Pain‐Like Behaviour With Limited Action on Already Established Pain‐Like Behaviour in Mice” (European Journal of Pain (London, England), 2025)
